# In patent publication US20090192198A1, “INHIBITORS OF THE 11-BETA-HYDROXYSTEROID DEHYDROGENASE TYPE 1 ENZYME” (Abbott Laboratories, priority 2005, published 2009):
# Key:
# [1] = test system: serotonin (5-HT) levels (medial prefrontal cortex, hippocampus); assay: Microdialysis, cortical/hippocampal serotonin release; assay type: in vivo, rat; details: single administration 30 mg/kg, p.o.; medial prefrontal cortex and hippocampus (FIGS. 7a, 7b)
# Procedure: (§1) Microdialysis studies (resting or challenging conditions) in freely moving, male Sprague Dawley rats (Janvier, 295-315 g, n=5-8/treatment group) were performed using stereotactically instrumented microdialysis probes (CMA/12-14-2): mPFC, hippocampus. Aliquots of the same microdialysate fractions (6 before, and 9-12 after compound administration) were analyzed either for acetylcholine or for serotonin by HPLC and electrochemical detection.
# This is a feature shared by marketed anti-depressive drugs and might indicate the potential use for 11β-HSD1 inhibitors as antidepressants/anxiolytic drugs. These findings remain to be confirmed by (i) investigating 11β-HSD1 inhibitors from different chemotype(s) in selected microdialysis studies and/or (ii) in animal models of depression/anxiety.
# [2] = test system: acetylcholine release (mPFC, hippocampus); assay: Microdialysis, cortical/hippocampal acetylcholine release; assay type: in vivo, rat; details: single administration 30 mg/kg, p.o.
# Procedure: as §1
# Male Sprague Dawley rats = assay: Short-term social recognition memory in the rat; assay type: in vivo; details: 30 mg/kg po at 24, 18 and 1 hour before first juvenile exposure, vs vehicle control rats (FIG. 4)
# Procedure: Social memory and social cognition are impaired in disorders such as Alzheimer's disease and schizophrenia. One of the more commonly used preclinical models of social recognition memory is short-term social recognition in the rat, a model of short-term memory based on the recognition of a juvenile rat by an adult rat. […] The juvenile rat is then removed and reintroduced 120 min later, and interactive behavior of the adult rat is again monitored. If memory has been lost over the interval between trials 1 and 2, the extent of interaction is equal (expressed as a ratio of investigation time of T1/T2) and the ratio will be close to 1. However, if the adult remembers the juvenile, the investigation ratio declines. To test for non-specific effects, a novel juvenile is introduced at 120 minutes instead of the familiar juvenile. […]
# Rats were pre-dosed po at 24, 18 and 1 hour before first juvenile rat exposure with vehicle, or Compound CC (30 mg/kg). […] The time the adult spent exploring (sniffing, grooming, close following) the juvenile during this test session was recorded, and defined as the first investigation duration. […] Data were analyzed using a one-way analysis of variance. If there was a significant effect, subsequent post hoc significance was determined using Dunnett's multiple comparison testing (p<0.05 was regarded as significant).
# Fisher rats = assay: Rat wake EEG power spectrum and REM sleep parameters; assay type: in vivo; details: 30 mg/kg, 3 times at 24, 26, and 0.1 hours before measurement
# Procedure: EEG of Fisher rats (n=8/group) with chronically implanted supracortical EEG-electrodes were analyzed for an 8 h period. Intraindividual drug-induced changes of power spectra were analyzed. For REM sleep the number of REM episodes, latency to first REM, and total REM time was analyzed.
# Male CD-1 mice [3] = assay: 24-hour inhibitory avoidance task in mice, drug-in-diet dosing; assay type: in vivo; details: drug-in-diet 10 and 100 mg/kg/day in Western diet, tested from day 17, vs vehicle control mice (FIG. 1)
# Procedure: The 24-hour inhibitory avoidance task in mice is a measure of one-trial learning and memory consolidation in response to a discrete aversive event (foot-shock). Mice are first placed in an illuminated compartment of a two-compartment apparatus. Mice will naturally step through into an adjoining dark compartment, which they prefer. When the mice enter the dark they receive a mild foot-shock. To assess memory, mice are tested 24 hours later and the length of time the animal refrains from entering the dark compartment is recorded (higher latencies indicate improved memory for the aversive event).
# (§2) Male CD-1 mice were obtained from Charles River, Wilmington, Mass. Mice were group-housed 10 per cage. The body weight upon arrival was 20-25 g. Food and water were available ad libitum except during experiments. […]
# On the first day of testing (17 days after drug-in-diet was presented) mice were removed from the colony room in their home cage, brought to the testing room, and left undisturbed for 2 hours prior to testing initiation. […] The latency to enter the dark chamber was recorded and was the dependent variable measured for assessing memory retention (latency is defined as entry of the whole mouse; all 4 paws on the grids in the dark side, plus the tail in the chamber for 5 sec; 180 sec is maximum latency). Data were analyzed using Mann Whitney U comparisons. […]
# Male CD-1 mice [4] = assay: 24-hour inhibitory avoidance in mice, subchronic (3 administration) dosing; assay type: in vivo; details: 30 mg/kg PO, BID the day before training and one hour before training, vs vehicle control mice (FIG. 3)
# Procedure: Male CD-1 mice were obtained from Charles River, Wilmington, Mass. Mice were group-housed 10 per cage. The body weight upon arrival was 20-25 g. Food and water were available ad libitum except during experiments. Animals were acclimated to the animal facilities for a period of at least one week prior to commencement of experiments. Animals were tested in the light phase of a 12-hour light:12-hour dark schedule (lights on 0600 hours).
# Compound AA and Compound BB were synthesized at Abbott Laboratories. […] Compound AA was administered in a cloudy, fine suspension, while Compound BB was administered in a solution.
# On training day, mice were injected with Compound AA, Compound BB or vehicle one-hour PO before training. One hour following injection (start of training) mice were subjected to a training session in which they were placed in a lighted compartment of a two-compartment chamber (Gemini apparatus, San Diego Instruments, San Diego, Calif.) with a manually operated gate separating the compartments. […] Twenty-four hours later mice were again tested in the same apparatus, except without shock, and the transfer latency from the lighted to the dark compartment recorded and used as an index of memory for the punished response 24 hours earlier. […] Data were analyzed using Mann Whitney U comparisons. […]
# HSD-1 = assay: Monkey ex vivo HSD1 activity (cortisone to cortisol in harvested tissue); design: species or system Cynomolgus Monkeys
# Procedure: Harvested tissues (approximately 150 mg) were minced into small, 2 mm pieces in the presence of 5× volume of incubation buffer. Cortisone at final concentrations of 0, 3, 10 or 30 μM was added to each well. Cell culture plates with tissues were incubated at 37° C. for three hours. Two-hundred μL of tissue culture supernatant was then removed and spun at 1000 rpm in an Eppindorf tube, and then 100 μL of resulting supernatant was aliquotted into two tubes for LCMS analysis of cortisol.
# phosphorylated CREB = assay: Phosphorylated CREB immunohistochemistry in brain after food-in-diet dosing; assay type: in vivo, mice; details: 18 days food-in-diet, 10 and 100 mg/kg/day (FIG. 2)
# Procedure: In vivo signaling studies were conducted to examine the biochemical pathways that may be mechanistically involved in the cognitive efficacy associated with Compound AA. An important signaling process that serves as a biochemical correlate of synaptic plasticity underlying learning and memory is the phosphorylation of CREB (c-AMP-response element binding protein), a transcription factor critical to long-term memory.
# as §2
# Following perfusion, brains were removed and postfixed in 20% sucrose-PBS (phosphate buffered saline) overnight and subsequently cut on a cryostat (40 μm coronal sections) and collected as free-floating sections in PBS. […] Immuno-reactivity (IR) was quantified using an image analysis system (Leica, Quantimet 500) that determined number and/or area of peroxidase substrate-positive stained neurons from digitized photomicrographs according to a pixel gray level empirically determined prior to analysis. Overall statistical significance was determined using a one-way ANOVA, with Dunnett's post hoc analyses used to determine significance (p<0.05 was considered significant).
SMILES,microdialysate serotonin (5-HT) levels [1],ACh release under resting conditions ([2]; acute),ACh release under challenging conditions (home cage to novel cage and back) ([2]; cortex and hippocampus (FIGS. 6a-6c)),short-term memory retention (social recognition) (Male Sprague Dawley rats),reduction of total sleep time (Fisher rats; 8 h period) [%],reduction of number of REM sleep episodes (Fisher rats; 8 h period (FIG. 5a)) [%],reduction of REM time (Fisher rats; 8 h period (FIG. 5b)) [%],increase of latency to first REM (Fisher rats; 8 h period (FIG. 5c)) [%],"memory retention (Mean Transfer Latency), 24-hour inhibitory avoidance (Male CD-1 mice [3])","memory retention (transfer latency), 24-hour inhibitory avoidance (Male CD-1 mice [4])","ex vivo inhibition of monkey brain, fat and liver HSD1 (HSD-1; 2.5 and 16 hours following a single oral 10 mg/kg dose)","HSD-1 ex vivo activity, Mean % Veh Control (HSD-1; Cerebral Cortex, 16 hours after single 10 mg/kg oral dose) [%]","HSD-1 ex vivo activity, Mean % Veh Control (HSD-1; Hippocampus, 16 hours after single 10 mg/kg oral dose) [%]","HSD-1 ex vivo activity, Mean % Veh Control (HSD-1; Liver, 2.5 hours after single 10 mg/kg oral dose) [%]","HSD-1 ex vivo activity, Mean % Veh Control (HSD-1; Liver, 16 hours after single 10 mg/kg oral dose) [%]","HSD-1 ex vivo activity, Mean % Veh Control (HSD-1; Mesenteric Fat, 2.5 hours after single 10 mg/kg oral dose) [%]","HSD-1 ex vivo activity, Mean % Veh Control (HSD-1; Mesenteric Fat, 16 hours after single 10 mg/kg oral dose) [%]",phosphorylated CREB immuno-reactivity (phosphorylated CREB)
"O=C(CN1CCN(c2ccc(C(F)(F)F)cn2)CC1)NC1C2CC3CC1CC(O)(C3)C2 (stereo not drawn) [Compound CC, N-[(E)-5-Hydroxy-2-adamantyl]-2-{4-[5-(trifluoromethyl)pyridin-2-yl]piperazin-1-yl}acetamide]",long-lasting increase of serotonin (5-HT) levels,did not change ACh release,did not induce any further stimulation of ACh release,significant improvement in short-term memory retention,10,16,23,62,–,–,–,–,–,–,–,–,–,–
"CC(C)(Oc1ccc(F)cc1Cl)C(=O)NC1C2CC3CC1CC(S(C)(=O)=O)(C3)C2 (stereo not drawn) [S, 2-(2-Chloro-4-fluorophenoxy)-2-methyl-N-[(E)-5-(methylsulfonyl)-2-adamantyl]propanamide]",–,–,–,–,–,–,–,–,significant improvement in memory retention,significant improvement in memory retention,potent ex vivo inhibition,30,42,38,9,90,50,increase in phosphorylated CREB
